Assay results reported in patent US11117947B2, “Double-acylated GLP-1 derivatives” (Novo Nordisk A/S, priority 2011, dated 2021).
Numbered stars: 1 amine (or outer) side, 2 acyl side, 3 side chain; on linkers, the order of the positions; unused ones are H or OH. Square brackets hold non-standard residues; d marks the D form. Side chains are listed from the residue outwards. Peptide text beside a SMILES is read from it. * marks the point of attachment. Decanoyl(10-(4-HOOC-PhO)) = O=C(O)c1ccc(OCCCCCCCCCC(=O)*)cc1; γGlu = O=C(O)[C@H](CCC(=O)[*:2])N[*:1]; C14 diacid = O=C(O)CCCCCCCCCCCCC(=O)*; AEEA = NCCOCCOCC(=O)O; Aib = CC(C)(N)C(=O)O

How the values were obtained:
human GLP-1 receptor [1] = target: T1, human GLP-1 receptor (Homo sapiens, UniProt P43220); experiment: GLP-1 receptor binding: displacement of 125I-GLP-1 (SPA) at low and high albumin; settings: 2.0% HSA vs 0.001% HSA
T1 construct: expressed in transfected cells; membranes
Procedure, shortened: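 Membranes from hamster cells stably transfected with the receptor, with WGA SPA beads and 0.06 nM [^125I]-GLP-1(7-36)NH2, incubated 120 min at 30 °C with shaking.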

[2] = Pharmacokinetics in rat: half-life after i.v. administration; type: in vivo; settings: plasma, iv, 6 nmol/kg, male Sprague Dawley rats, approximately 4 rats per group, read-out: t½/h (half-life in rat) (converted)
Procedure: In vivo pharmacokinetic studies in rats were performed with the GLP-1 derivatives of Examples 2, 10, 17-18, and 31, as described in the following. Semaglutide was included for comparison.
Male Sprague Dawley rats of same age with a body weight of approximately 400 g were obtained from Taconic (Denmark) and assigned to the treatments by simple randomisation on body weight, approximately 4 rats per group, so that all animals in each group were of similar body weight.
The GLP-1 derivatives (approximately 6 nmol/ml) were dissolved in 50 mM sodium phosphate, 145 mM sodium chloride, 0.05% tween 80, pH 7.4. Intravenous injections (1.0 ml/kg) of the compounds were given through a catheter implanted in the right jugular vein. Blood was sampled from vena sublingualis for 5 days post dosing. Blood samples (200 μl) were collected in EDTA buffer (8 mM) and then centrifuged at 4° C. and 10000 G for 5 minutes. Plasma samples were kept at −20° C. until analyzed for plasma concentration of the respective GLP-1 compound.
The plasma concentrations of the GLP-1 compounds were determined using a Luminescence Oxygen Channeling Immunoasssay (LOCI), generally as described for the determination of insulin by Poulsen and Jensen in Journal of Biomolecular Screening 2007, vol. 12, p. 240-247. The donor beads were coated with streptavidin, while acceptor beads were conjugated with a monoclonal antibody recognising a mid-/C-terminal epitope of the peptide. Another monoclonal antibody, specific for the N-terminus, was biotinylated. The three reactants were combined with the analyte and formed a two-sited immuno-complex. Illumination of the complex released singlet oxygen atoms from the donor beads, which were channeled into the acceptor beads and triggered chemiluminescence which was measured in an Envision plate reader. The amount of light was proportional to the concentration of the compound.
Plasma concentration-time profiles were analyzed using Phoenix WinNonLin ver. 6.2, Pharsight Inc., Mountain View, Calif., USA), and the half-life (T1/2) calculated using individual plasma concentration-time profiles from each animal.

human GLP-1 receptor [3] = target: T1, human GLP-1 receptor; experiment: In vitro potency: stimulation of cAMP formation (AlphaScreen cAMP Assay) in membranes expressing the human GLP-1 receptor; type: biochemical; settings: membranes from BHK467-12A (tk-ts13) expressing the human GLP-1 receptor
Procedure: Purified plasma membranes from a stable transfected cell line, BHK467-12A (tk-ts13), expressing the human GLP-1 receptor were stimulated with the GLP-1 analogue or derivative in question, and the potency of cAMP production was measured using the AlphaScreen™ cAMP Assay Kit from Perkin Elmer Life Sciences. The basic principle of the AlphaScreen Assay is a competition between endogenous cAMP and exogenously added biotin-cAMP. The capture of cAMP is achieved by using a specific antibody conjugated to acceptor beads.
A stable transfected cell line and a high expressing clone were selected for screening. The cells were grown at 5% CO2 in DMEM, 5% FCS, 1% Pen/Strep (Penicillin/Streptomycin) and 0.5 mg/ml of the selection marker G418.
Cells at approximately 80% confluence were washed 2× with PBS and harvested with Versene (aqueous solution of the tetrasodium salt of ethylenediaminetetraacetic acid), centrifuged 5 min at 1000 rpm and the supernatant removed. The additional steps were all performed on ice. The cell pellet was homogenised by the Ultrathurax for 20-30 s in 10 ml of Buffer 1 (20 mM Na-HEPES, 10 mM EDTA, pH=7.4), centrifuged 15 min at 20,000 rpm and the pellet resuspended in 10 ml of Buffer 2 (20 mM Na-HEPES, 0.1 mM EDTA, pH=7.4). The suspension was homogenised for 20-30 s and centrifuged 15 min at 20,000 rpm. Suspension in Buffer 2, homogenisation and centrifugation was repeated once and the membranes were resuspended in Buffer 2. The protein concentration was determined and the membranes stored at −80° C. until use.
The final volume per well was 50 μl.
AlphaScreen cAMP Assay Kit from Perkin Elmer Life Sciences (cat. No: 6760625M); containing Anti-cAMP Acceptor beads (10 U/μl), Streptavidin Donor beads (10 U/μl) and Biotinylated-cAMP (133 U/μl).
cAMP standard (dilution factor in assay=5): cAMP Solution: 5 μL of a 5 mM cAMP-stock+495 μL AlphaScreen Buffer.
Membranes were prepared from hGLP-1/BHK 467-12A cells with a concentration of 6 μg/well corresponding to 0.6 mg/ml (the amount of membranes used pr. well may vary)
“No membranes”: Acceptor Beads (15 μg/ml final) in AlphaScreen buffer
“6 μg/well membranes”: membranes+Acceptor Beads (15 μg/ml final) in AlphaScreen buffer
An aliquot (10 μl) of “No membranes” was added to the cAMP standard (per well in duplicate wells) and the positive and negative controls
An aliquot (10 μl) of “6 μg/well membranes” was added to GLP-1 and analogues (per well in duplicate or triplicate wells)
Pos. Control: 10 μl “no membranes”+10 μl AlphaScreen Buffer
Neg. Control: 10 μl “no membranes”+10 μl cAMP Stock Solution (50 μM)
1. Make the AlphaScreen Buffer.
2. Dissolve and dilute the GLP-1/Analogues/cAMP standard in AlphaScreen Buffer.
4. Add the cAMP/GLP-1/Analogues to the plate: 10 μl per well.
5. Prepare membrane/Acceptor Beads solution and add this to the plates: 10 μl per well.
6. Add the Donor Beads: 30 μl per well.

[4] = Estimate of oral bioavailability: gut injection in rat (caprate), exposure in plasma; type: in vivo; settings: injection in jejunum, 1000 uM in 55 mg/ml sodium caprate, plasma concentration (pM) at 30 min divided by dosing solution concentration (μM), mean n=4
Procedure, shortened: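 Male Sprague Dawley rats (~240 g, n=4) received 100 μl of 1000 uM derivative in 55 mg/ml sodium caprate by catheter into proximal or mid jejunum. Tail-vein EDTA plasma was sampled up to 240 min. Peptide was quantified by two-antibody bead chemiluminescence immunoassay, giving mean concentration-time profiles (pmol/l).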

T1 sequence (P43220 24-463): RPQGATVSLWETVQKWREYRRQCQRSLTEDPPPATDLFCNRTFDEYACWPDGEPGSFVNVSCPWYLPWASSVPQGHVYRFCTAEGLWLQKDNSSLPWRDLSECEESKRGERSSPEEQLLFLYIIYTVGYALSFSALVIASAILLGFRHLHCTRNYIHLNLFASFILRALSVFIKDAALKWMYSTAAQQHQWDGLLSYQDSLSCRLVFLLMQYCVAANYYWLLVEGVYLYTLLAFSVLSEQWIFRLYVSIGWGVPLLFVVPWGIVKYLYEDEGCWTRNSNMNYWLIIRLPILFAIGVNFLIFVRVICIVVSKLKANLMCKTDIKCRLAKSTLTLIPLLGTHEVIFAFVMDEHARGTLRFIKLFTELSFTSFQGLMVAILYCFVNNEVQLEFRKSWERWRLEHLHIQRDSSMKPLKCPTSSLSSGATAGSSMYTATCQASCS

| Ratio [(IC50/nM) high HSA]/[(IC50/nM) low HSA] (human GLP-1 receptor [1]) | EC50 (human GLP-1 receptor [3]) [nM] | Dose-corrected exposure at 30 min [4] | Compound | half-life [2] [min] |
| --- | --- | --- | --- | --- |
| 2.1 |  |  | CC[C@H](C)[C@H](NC(=O)[C@H](Cc1ccccc1)NC(=O)[C@H](CCCCNC(=O)COCCOCCNC(=O)COCCOCCNC(=O)CC[C@H](NC(=O)CCCCCCCCCCCCC(=O)O)C(=O)O)NC(=O)[C@H](CCCNC(=N)N)NC(=O)[C@H](C)NC(=O)[C@H](C)NC(=O)[C@H](CCC(N)=O)NC(=O)[C@H](CCC(=O)O)NC(=O)[C@H](CCC(=O)O)NC(=O)[C@H](CC(C)C)NC(=O)[C@H](Cc1ccc(O)cc1)NC(=O)[C@H](CO)NC(=O)[C@H](CO)NC(=O)[C@@H](NC(=O)[C@H](CC(=O)O)NC(=O)[C@H](CO)NC(=O)[C@@H](NC(=O)[C@H](CCCCNC(=O)COCCOCCNC(=O)COCCOCCNC(=O)CC[C@H](NC(=O)CCCCCCCCCCCCC(=O)O)C(=O)O)NC(=O)[C@@H](NC(=O)CNC(=O)[C@H](CCC(=O)O)NC(=O)C(C)(C)NC(=O)[C@@H](N)Cc1c[nH]cn1)[C@@H](C)O)[C@@H](C)O)C(C)C)C(=O)N[C@@H](C)C(=O)N[C@@H](Cc1c[nH]cn1)C(=O)N[C@@H](CC(C)C)C(=O)N[C@H](C(=O)N[C@@H](CCC(N)=O)C(=O)NCC(=O)N[C@@H](CCCNC(=N)N)C(=O)NCC(=O)O)C(C)C [Example 18, N^ε12-[2-[2-[2-[[2-[2-[2-[[(4S)-4-carboxy-4-(13-carboxytridecanoylamino)butanoyl]amino]ethoxy]ethoxy]acetyl]amino]ethoxy]ethoxy]acetyl], N^ε27-[2-[2-[2-[[2-[2-[2-[[(4S)-4-carboxy-4-(13-carboxytridecanoylamino)butanoyl]amino]ethoxy]ethoxy]acetyl]amino]ethoxy]ethoxy]acetyl]-[Aib^8,Lys^12,Glu^22,Arg^26,Lys^27,His^31,Gln^34]-GLP-1-(7-37)-peptide] (H-H[Aib]EGTK([AEEA-AEEA-γGlu-C14 diacid])TSDVSSYLEEQAARK([AEEA-AEEA-γGlu-C14 diacid])FIAHLVQGRG-OH) | 600 |
| 60 | 0.052 | 61 | CC[C@H](C)[C@H](NC(=O)[C@H](Cc1ccccc1)NC(=O)[C@H](CCCCNC(=O)COCCOCCNC(=O)COCCOCCNC(=O)CC[C@H](NC(=O)CCCCCCCCCCCCC(=O)O)C(=O)O)NC(=O)[C@H](CCCNC(=N)N)NC(=O)[C@H](C)NC(=O)[C@H](C)NC(=O)[C@H](CCC(N)=O)NC(=O)[C@H](CCCCNC(=O)COCCOCCNC(=O)COCCOCCNC(=O)CC[C@H](NC(=O)CCCCCCCCCCCCC(=O)O)C(=O)O)NC(=O)[C@H](CCC(=O)O)NC(=O)[C@H](CC(C)C)NC(=O)[C@H](Cc1ccc(O)cc1)NC(=O)[C@H](CO)NC(=O)[C@H](CO)NC(=O)[C@@H](NC(=O)[C@H](CC(=O)O)NC(=O)[C@H](CO)NC(=O)[C@@H](NC(=O)[C@H](Cc1ccccc1)NC(=O)[C@@H](NC(=O)CNC(=O)[C@H](CCC(=O)O)NC(=O)C(C)(C)NC(=O)[C@@H](N)Cc1c[nH]cn1)[C@@H](C)O)[C@@H](C)O)C(C)C)C(=O)N[C@@H](C)C(=O)N[C@@H](Cc1c[nH]cn1)C(=O)N[C@@H](CC(C)C)C(=O)N[C@H](C(=O)NCC(=O)O)C(C)C [Example 19, N^ε22-[2-[2-[2-[[2-[2-[2-[[(4S)-4-carboxy-4-(13-carboxytridecanoylamino)butanoyl]amino]ethoxy]ethoxy]acetyl]amino]ethoxy]ethoxy]acetyl], N^ε27-[2-[2-[2-[[2-[2-[2-[[(4S)-4-carboxy-4-(13-carboxytridecanoylamino)butanoyl]amino]ethoxy]ethoxy]acetyl]amino]ethoxy]ethoxy]acetyl]-[Aib^8,Lys^22,Arg^26,Lys^27,His^31,Gly^34]-GLP-1-(7-34)-peptide] (H-H[Aib]EGTFTSDVSSYLEK([AEEA-AEEA-γGlu-C14 diacid])QAARK([AEEA-AEEA-γGlu-C14 diacid])FIAHLVG-OH) |  |

| Compound | Ratio [(IC50/nM) high HSA]/[(IC50/nM) low HSA] (human GLP-1 receptor [1]) | EC50 (human GLP-1 receptor [3]) [nM] | Dose-corrected exposure at 30 min [4] | half-life [2] [min] |
| --- | --- | --- | --- | --- |
| CC[C@H](C)[C@H](NC(=O)[C@H](Cc1ccccc1)NC(=O)[C@H](CCCCNC(=O)COCCOCCNC(=O)COCCOCCNC(=O)CC[C@H](NC(=O)CCCCCCCCCOc1ccc(C(=O)O)cc1)C(=O)O)NC(=O)[C@H](CCCNC(=N)N)NC(=O)[C@H](C)NC(=O)[C@H](C)NC(=O)[C@H](CCC(N)=O)NC(=O)[C@H](CCC(=O)O)NC(=O)[C@H](CCC(=O)O)NC(=O)[C@H](CC(C)C)NC(=O)[C@H](Cc1ccc(O)cc1)NC(=O)[C@H](CO)NC(=O)[C@H](CO)NC(=O)[C@@H](NC(=O)[C@H](CC(=O)O)NC(=O)[C@H](CO)NC(=O)[C@@H](NC(=O)[C@H](Cc1ccccc1)NC(=O)[C@@H](NC(=O)CNC(=O)[C@H](CCC(=O)O)NC(=O)C(C)(C)NC(=O)[C@@H](N)Cc1c[nH]cn1)[C@@H](C)O)[C@@H](C)O)C(C)C)C(=O)N[C@@H](CCC(=O)O)C(=O)N[C@@H](Cc1c[nH]c2ccccc12)C(=O)N[C@@H](CC(C)C)C(=O)N[C@H](C(=O)N[C@@H](CCCNC(=N)N)C(=O)NCC(=O)N[C@@H](CCCCNC(=O)COCCOCCNC(=O)COCCOCCNC(=O)CC[C@H](NC(=O)CCCCCCCCCOc1ccc(C(=O)O)cc1)C(=O)O)C(=O)NCC(=O)N[C@@H](CCC(=O)O)C(=O)NCC(=O)O)C(C)C [Example 31, N^ε27-[2-[2-[2-[[2-[2-[2-[[(4S)-4-carboxy-4-[10-(4-carboxyphenoxy)decanoylamino]butanoyl]amino]ethoxy]ethoxy]acetyl]amino]ethoxy]ethoxy]acetyl], N^ε36-[2-[2-[2-[[2-[2-[2-[[(4S)-4-carboxy-4-[10-(4-carboxyphenoxy)decanoylamino]butanoyl]amino]ethoxy]ethoxy]acetyl]amino]ethoxy]ethoxy]acetyl]-[Aib^8,Glu^22,Arg^26,Lys^27,Glu^30,Arg^34,Lys^36]-GLP-1-(7-37)-peptidyl-Glu-Gly] (H-H[Aib]EGTFTSDVSSYLEEQAARK([AEEA-AEEA-γGlu-Decanoyl(10-(4-HOOC-PhO))])FIEWLVRGK([AEEA-AEEA-γGlu-Decanoyl(10-(4-HOOC-PhO))])GEG-OH; N-terminus and C-terminus assumed) | 629 |  |  | 1140 |
